In PMC6383986, “Fragment-Based Covalent Ligand Screening Enables Rapid Discovery of Inhibitors for the RBR E3 Ubiquitin Ligase HOIP” (Journal of the American Chemical Society, 2019):

Legend:
Test in all cases: ABPP quantitative MS, MCF7
Format in all cases: cell-based
Conditions in all cases: 30 μM (11a) 7 h vs DMSO, then 3 μM (15) 2 h
ALDH6A1 = biological target: T1, ALDH6A1 (Homo sapiens, UniProt Q02252)
T1 construct: endogenous in cells; host or cells: HEK293T (A21); MCF7 (A27)
Protocol: (§1) control and cells treated with control compounds (11i) and (17) at 30 µM). HOIP RBR wild type […]
(§2) nm, indicating low to no labelling by (11a), and a dominant signal from the 800 channel (green).
(§3) C = HOIP RBR control (0.5 µg).
(§4) 5.2 Activity-based protein profiling – Enrichment and LC-MS
(§5) Cell culture and transfection, compound treatment, ha rvest and lysis
(§6) HEK293T cells were cultured and transfected as describ ed in section 4.8 above. MCF7 cells were seeded in 100 mm Petri dishes at 6 × 10^5 cells/dish and cultured overnight at 37 °C as described in section 4.8 above. Both cell types were treated with inhibitor (11a) (30 µM final concentration) or DMSO as described above, incubating for 7 h at 37 °C, followed by addition of clickable probe (15) (3 µM final concentration) and incubation for an additional 2 h. The cells were then harvested and lysed (50 mM Tris-HCl, pH 7.5, 1.5 mM MgCl2, 150 mM NaCl, 5% glycerol, 0.8% v/v IGEPAL-CA630, 25 mM NaF, 1 mM Na3VO4, complete protease inhibitor), and the protein concentration was determined by the BCA assay as described in section 4.7 above.
(§7) Enrichment of TCO-labelled proteins
(§8) Similar to a previously described protocol,22 tetrazine beads were generated by incubating high capacity neutravidin beads (500 µL; Thermo Scientific) with 0.1 µmol tetrazine-PEG4-biotin (Jena Bioscience) in PBS buffer over night at 4 °C, followed by blocking with 5 µL 100 mM biotin in DMSO for 30 minutes at 4 °C. The beads were washed 3× with buffer (50 mM Tris-HCl pH 7.4, 5% glycerol, 1.5 mM MgCl2, 150 mM NaCl, 1 mM Na3VO3, 5 mM NaF) supplemented with 0.4% IGEPAL CA-630 and adjusted to a 5% v/v slurry.
(§9) Lysate with a protein concentration of approx. 2 mg/mL (500 µL) were added to the TCO beads (35 µL) on a 96-well filter plate (Porvair, Dunn #240002) and incubated at 4°C for 2 h. After incubation, beads were washed using a vacuum manifold with 5 mL wash buffer 1 (WB1) (50 mM […]
(§10) (50 mM HEPES pH 8.5, 2 M urea), and 5 mL WB4 (50 mM HEPES pH 8.5). Proteins were then eluted by on bead digestion: 60 µL elution buffer (50 mM HEPES pH 8.5, 5 mM Tris-(2-carboxyethyl)phosphine, 15 mM chloroacetamide, 0.004 µg LysC/ µL (Wako chemicals), 0.004 µg trypsin/µL (Promega)) were added to the washed beads and incubated over night at room temperature. Eluates were collected by centrifugation, beads incubated with an additional 60 µL WB4, eluted and both eluates were combined and lyophilized. […]
(§11) proportional to the number of ions; this measure is referred to as ion area.24 Spectra matching to peptides were filtered according to the following criteria: mascot ion score >15, signal-to-background of the precursor ion >4, and signal -to-interference >0.5. Fold-changes were corrected for isotope purity and adjusted for interference caused by co-eluting nearly isobaric peaks.25 Protein quantification was derived from individual spectra matching to distinct peptides by using a sum-based bootstrap algorithm; 95% confidence intervals were calculated for all protein fold-changes that were quantified with more than three spectra.23 Relative protein abundance s were generated on the basis of MS1 abundances .26 Briefly, XIC peaks were matched to identified peptides. […] These values were then summed, and the mean was calculated.
(§12) In cases where fewer than 3 sequences were associated, the mean was calculated using XIC intensities from either one or two sequences.
(§13) Proteins were filtered for >1 quantified spectra matches (qusm). Residual binding was calculated […]

DHX36 = biological target: T2, DHX36 (Homo sapiens, UniProt Q9H2U1)
T2 construct: endogenous in cells; host or cells: MCF7
Protocol: as §1, §2, §3, §4, §5, §6, §7, §8, §9, §10, §11, §12, §13

GCLC = biological target: T3, GCLC (Homo sapiens, UniProt P48506)
T3 construct: endogenous in cells; host or cells: MCF7
Protocol: as §1, §2, §3, §4, §5, §6, §7, §8, §9, §10, §11, §12, §13

SMG9 = biological target: T4, SMG9 (Homo sapiens, UniProt Q9H0W8)
T4 construct: endogenous in cells; host or cells: MCF7
Protocol: as §1, §2, §3, §4, §5, §6, §7, §8, §9, §10, §11, §12, §13

SRBD1 = biological target: T5, SRBD1 (Homo sapiens, UniProt Q8N5C6)
T5 construct: endogenous in cells; host or cells: MCF7
Protocol: as §1, §2, §3, §4, §5, §6, §7, §8, §9, §10, §11, §12, §13

T5 sequence (Q8N5C6 whole entry): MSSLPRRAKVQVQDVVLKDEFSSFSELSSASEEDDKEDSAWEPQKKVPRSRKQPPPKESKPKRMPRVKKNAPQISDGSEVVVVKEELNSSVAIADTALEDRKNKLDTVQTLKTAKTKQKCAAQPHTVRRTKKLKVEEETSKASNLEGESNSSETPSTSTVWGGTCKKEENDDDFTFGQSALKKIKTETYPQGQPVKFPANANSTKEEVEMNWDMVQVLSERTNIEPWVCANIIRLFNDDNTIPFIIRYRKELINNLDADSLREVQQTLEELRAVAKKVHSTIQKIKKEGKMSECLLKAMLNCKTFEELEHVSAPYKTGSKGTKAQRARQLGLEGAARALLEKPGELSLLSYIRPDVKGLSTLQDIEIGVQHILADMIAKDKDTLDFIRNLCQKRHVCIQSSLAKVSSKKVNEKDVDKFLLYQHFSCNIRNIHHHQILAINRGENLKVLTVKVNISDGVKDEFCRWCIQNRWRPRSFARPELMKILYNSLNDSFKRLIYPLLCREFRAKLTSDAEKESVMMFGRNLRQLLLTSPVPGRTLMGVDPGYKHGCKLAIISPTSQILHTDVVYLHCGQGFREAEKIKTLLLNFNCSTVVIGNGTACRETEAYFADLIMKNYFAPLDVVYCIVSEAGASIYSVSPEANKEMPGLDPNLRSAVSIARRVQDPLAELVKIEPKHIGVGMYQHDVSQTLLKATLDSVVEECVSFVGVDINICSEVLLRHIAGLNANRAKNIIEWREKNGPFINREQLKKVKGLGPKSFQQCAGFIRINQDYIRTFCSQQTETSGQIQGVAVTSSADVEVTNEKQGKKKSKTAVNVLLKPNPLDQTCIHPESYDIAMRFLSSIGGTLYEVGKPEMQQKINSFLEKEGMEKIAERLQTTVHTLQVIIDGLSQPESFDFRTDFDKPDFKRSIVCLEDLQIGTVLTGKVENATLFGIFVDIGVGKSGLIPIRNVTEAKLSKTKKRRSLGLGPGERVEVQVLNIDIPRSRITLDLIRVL
T1 sequence (Q02252 34-535): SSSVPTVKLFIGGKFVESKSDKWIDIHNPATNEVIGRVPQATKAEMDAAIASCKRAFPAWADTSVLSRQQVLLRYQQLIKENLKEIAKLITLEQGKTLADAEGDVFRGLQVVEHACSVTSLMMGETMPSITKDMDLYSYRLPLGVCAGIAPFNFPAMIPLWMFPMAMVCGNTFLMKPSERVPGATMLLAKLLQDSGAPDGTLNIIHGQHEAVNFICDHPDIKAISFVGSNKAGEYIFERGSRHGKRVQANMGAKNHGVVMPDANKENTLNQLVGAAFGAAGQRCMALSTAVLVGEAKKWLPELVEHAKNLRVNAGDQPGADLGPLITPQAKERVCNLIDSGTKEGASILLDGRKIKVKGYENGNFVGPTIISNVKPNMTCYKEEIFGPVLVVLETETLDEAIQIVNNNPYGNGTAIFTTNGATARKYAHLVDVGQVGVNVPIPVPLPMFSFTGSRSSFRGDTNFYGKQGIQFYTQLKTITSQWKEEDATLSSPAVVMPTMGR
T2 sequence (Q9H2U1 whole entry): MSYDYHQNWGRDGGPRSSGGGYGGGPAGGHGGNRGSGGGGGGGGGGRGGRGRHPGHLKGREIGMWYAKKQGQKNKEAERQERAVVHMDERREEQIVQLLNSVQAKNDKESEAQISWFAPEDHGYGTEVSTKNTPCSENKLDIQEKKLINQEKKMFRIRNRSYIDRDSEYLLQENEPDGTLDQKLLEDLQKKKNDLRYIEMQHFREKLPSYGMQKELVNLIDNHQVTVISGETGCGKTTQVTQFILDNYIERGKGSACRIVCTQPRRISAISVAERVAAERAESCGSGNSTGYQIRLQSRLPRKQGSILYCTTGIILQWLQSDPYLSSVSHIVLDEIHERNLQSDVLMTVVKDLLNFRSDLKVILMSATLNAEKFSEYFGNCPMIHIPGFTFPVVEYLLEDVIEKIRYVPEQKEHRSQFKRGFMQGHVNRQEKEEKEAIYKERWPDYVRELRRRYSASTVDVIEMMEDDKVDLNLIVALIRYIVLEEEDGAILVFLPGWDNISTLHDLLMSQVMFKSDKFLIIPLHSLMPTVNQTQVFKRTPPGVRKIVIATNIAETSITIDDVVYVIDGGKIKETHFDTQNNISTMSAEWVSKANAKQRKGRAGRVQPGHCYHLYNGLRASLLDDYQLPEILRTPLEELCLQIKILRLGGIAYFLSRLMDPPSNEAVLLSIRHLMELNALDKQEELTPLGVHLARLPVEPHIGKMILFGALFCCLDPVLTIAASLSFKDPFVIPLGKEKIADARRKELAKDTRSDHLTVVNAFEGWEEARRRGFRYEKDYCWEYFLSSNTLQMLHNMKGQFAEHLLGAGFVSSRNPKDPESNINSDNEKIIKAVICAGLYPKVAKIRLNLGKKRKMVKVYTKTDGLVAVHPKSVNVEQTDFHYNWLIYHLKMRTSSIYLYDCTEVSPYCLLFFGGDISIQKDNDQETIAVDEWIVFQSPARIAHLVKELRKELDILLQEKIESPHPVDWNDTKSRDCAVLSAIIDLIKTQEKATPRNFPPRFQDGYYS
T4 sequence (Q9H0W8 whole entry): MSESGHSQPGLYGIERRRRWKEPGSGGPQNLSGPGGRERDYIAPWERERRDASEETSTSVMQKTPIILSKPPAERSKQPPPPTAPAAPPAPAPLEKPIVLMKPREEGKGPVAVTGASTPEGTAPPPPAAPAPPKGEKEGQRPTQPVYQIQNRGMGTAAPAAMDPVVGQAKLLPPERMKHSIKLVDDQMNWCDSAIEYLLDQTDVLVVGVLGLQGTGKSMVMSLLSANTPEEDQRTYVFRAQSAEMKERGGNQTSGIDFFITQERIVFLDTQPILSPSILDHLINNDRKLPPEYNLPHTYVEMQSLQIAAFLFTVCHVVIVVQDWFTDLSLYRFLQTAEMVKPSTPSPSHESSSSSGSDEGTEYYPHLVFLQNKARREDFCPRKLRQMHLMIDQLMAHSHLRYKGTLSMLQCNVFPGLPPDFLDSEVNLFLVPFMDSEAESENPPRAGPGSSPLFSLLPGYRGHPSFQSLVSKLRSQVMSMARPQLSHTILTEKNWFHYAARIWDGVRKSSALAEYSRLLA
T3 sequence (P48506 whole entry): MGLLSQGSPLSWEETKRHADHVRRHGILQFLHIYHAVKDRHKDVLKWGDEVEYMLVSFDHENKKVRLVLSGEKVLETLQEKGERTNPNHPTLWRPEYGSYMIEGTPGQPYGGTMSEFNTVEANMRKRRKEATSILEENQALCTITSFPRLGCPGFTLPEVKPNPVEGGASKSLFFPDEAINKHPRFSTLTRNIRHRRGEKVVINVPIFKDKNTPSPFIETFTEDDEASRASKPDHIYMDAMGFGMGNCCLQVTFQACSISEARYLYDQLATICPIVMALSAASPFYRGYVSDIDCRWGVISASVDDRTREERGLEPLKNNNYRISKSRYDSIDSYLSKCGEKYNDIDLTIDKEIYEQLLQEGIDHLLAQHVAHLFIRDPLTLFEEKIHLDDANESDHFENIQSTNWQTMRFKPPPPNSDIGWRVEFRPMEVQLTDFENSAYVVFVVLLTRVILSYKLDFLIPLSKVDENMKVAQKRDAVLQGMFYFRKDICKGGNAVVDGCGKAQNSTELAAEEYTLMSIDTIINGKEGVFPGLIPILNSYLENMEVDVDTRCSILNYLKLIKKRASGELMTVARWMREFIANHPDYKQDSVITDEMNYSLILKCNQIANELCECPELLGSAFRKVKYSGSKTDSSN

`COC(=O)/C=C/CNC(=O)c1cc2c([nH]c1=O)CCCC2` [Compound 11a] was tested, and the “ratio: mean ratio between control and competition samples, ALDH6A1” value (ALDH6A1) was -0.9838 log2, the “ratio: mean ratio between control and competition samples, DHX36” value (DHX36) was -0.8884 log2 and the “ratio: mean ratio between control and competition samples, GCLC” value (GCLC) was -0.8853 log2. The “ratio: mean ratio between control and competition samples, SMG9” value (SMG9) was -0.8383 log2 and the “ratio: mean ratio between control and competition samples, SRBD1” value (SRBD1) was -0.7897 log2.
